Measured values taken from the NIST ThermoML archive (doi:10.1021/je100679s).

Test: xn = mol fraction of the nth substance listed
Details: 101 kPa, Liquid; for electrical conductivity: DDS-307 conductivity meter

CCCCCCn1cc[n+](C)c1C.O=S(=O)([N-]S(=O)(=O)C(F)(F)F)C(F)(F)F + COC(=O)OC
Details | electrical conductivity [S/m] | mass density [kg/m3]
293.15 K, x1 = 0.0466 | – | 1120.02
293.15 K, x1 = 0.0774 | – | 1145.97
293.15 K, x1 = 0.1154 | – | 1173.26
293.15 K, x1 = 0.1633 | – | 1201.7
293.15 K, x1 = 0.2269 | – | 1231.14
293.15 K, x1 = 0.3131 | – | 1261.37
293.15 K, x1 = 0.4385 | – | 1292.48
293.15 K, x1 = 0.6368 | – | 1324.48
293.15 K, x1 = 0.7472 | – | 1337.22
293.15 K, x1 = 1 | – | 1358.19
298.15 K, x1 = 0.0466 | 0.34 | 1113.88
298.15 K, x1 = 0.0774 | 0.579 | 1140.01
298.15 K, x1 = 0.1154 | 0.755 | 1167.46
298.15 K, x1 = 0.1633 | 0.839 | 1195.92
298.15 K, x1 = 0.2269 | 0.813 | 1225.5
298.15 K, x1 = 0.3131 | 0.631 | 1255.94
298.15 K, x1 = 0.4385 | 0.509 | 1287.18
298.15 K, x1 = 0.6368 | 0.23 | 1319.32
298.15 K, x1 = 0.7472 | 0.164 | 1332.18
298.15 K, x1 = 1 | 0.108 | 1353.11
303.15 K, x1 = 0.0466 | 0.378 | 1107.71
303.15 K, x1 = 0.0774 | 0.649 | 1134.13
303.15 K, x1 = 0.1154 | 0.82 | 1161.84
303.15 K, x1 = 0.1633 | 0.893 | 1190.53
303.15 K, x1 = 0.2269 | 0.862 | 1220.22
303.15 K, x1 = 0.3131 | 0.689 | 1250.93
303.15 K, x1 = 0.4385 | 0.553 | 1282.32
303.15 K, x1 = 0.6368 | 0.296 | 1314.7
303.15 K, x1 = 0.7472 | 0.209 | 1327.65
303.15 K, x1 = 1 | 0.158 | 1348.71
308.15 K, x1 = 0.0466 | 0.416 | 1101.52
308.15 K, x1 = 0.0774 | 0.718 | 1128.2
308.15 K, x1 = 0.1154 | 0.884 | 1156.12
308.15 K, x1 = 0.1633 | 0.947 | 1185.04
308.15 K, x1 = 0.2269 | 0.91 | 1214.85
308.15 K, x1 = 0.3131 | 0.751 | 1245.85
308.15 K, x1 = 0.4385 | 0.61 | 1277.48
308.15 K, x1 = 0.6368 | 0.361 | 1310.14
308.15 K, x1 = 0.7472 | 0.275 | 1323.1
308.15 K, x1 = 1 | 0.213 | 1344.29
313.15 K, x1 = 0.0466 | 0.454 | 1096.1
313.15 K, x1 = 0.0774 | 0.788 | 1123
313.15 K, x1 = 0.1154 | 0.949 | 1151.09
313.15 K, x1 = 0.1633 | 1 | 1180.2
313.15 K, x1 = 0.2269 | 0.959 | 1210.16
313.15 K, x1 = 0.3131 | 0.812 | 1241.28
313.15 K, x1 = 0.4385 | 0.667 | 1272.94
313.15 K, x1 = 0.6368 | 0.433 | 1305.67
313.15 K, x1 = 0.7472 | 0.35 | 1318.62
313.15 K, x1 = 1 | 0.271 | 1339.88
318.15 K, x1 = 0.0466 | 0.492 | 1089.11
318.15 K, x1 = 0.0774 | 0.857 | 1116.3
318.15 K, x1 = 0.1154 | 1.01 | 1144.64
318.15 K, x1 = 0.1633 | 1.05 | 1174.05
318.15 K, x1 = 0.2269 | 1.01 | 1204.45
318.15 K, x1 = 0.3131 | 0.876 | 1235.85
318.15 K, x1 = 0.4385 | 0.706 | 1267.89
318.15 K, x1 = 0.6368 | 0.492 | 1300.91
318.15 K, x1 = 0.7472 | 0.399 | 1314.09
318.15 K, x1 = 1 | 0.319 | 1335.47
323.15 K, x1 = 0.0466 | 0.53 | 1082.85
323.15 K, x1 = 0.0774 | 0.927 | 1110.32
323.15 K, x1 = 0.1154 | 1.08 | 1138.89
323.15 K, x1 = 0.1633 | 1.11 | 1168.73
323.15 K, x1 = 0.2269 | 1.05 | 1199.16
323.15 K, x1 = 0.3131 | 0.933 | 1230.72
323.15 K, x1 = 0.4385 | 0.782 | 1263.01
323.15 K, x1 = 0.6368 | 0.548 | 1296.31
323.15 K, x1 = 0.7472 | 0.469 | 1309.51
323.15 K, x1 = 1 | 0.369 | 1331.06
328.15 K, x1 = 0.0466 | 0.568 | 1076.68
328.15 K, x1 = 0.0774 | 0.996 | 1104.42
328.15 K, x1 = 0.1154 | 1.14 | 1133.32
328.15 K, x1 = 0.1633 | 1.16 | 1163.27
328.15 K, x1 = 0.2269 | 1.1 | 1193.98
328.15 K, x1 = 0.3131 | 0.998 | 1225.63
328.15 K, x1 = 0.4385 | 0.834 | 1258.14
328.15 K, x1 = 0.6368 | 0.623 | 1291.79
328.15 K, x1 = 0.7472 | 0.537 | 1304.97
328.15 K, x1 = 1 | 0.426 | 1326.65
333.15 K, x1 = 0.0466 | 0.606 | 1070.28
333.15 K, x1 = 0.0774 | 1.07 | 1098.51
333.15 K, x1 = 0.1154 | 1.21 | 1127.61
333.15 K, x1 = 0.1633 | 1.22 | 1157.77
333.15 K, x1 = 0.2269 | 1.15 | 1188.58
333.15 K, x1 = 0.3131 | 1.07 | 1220.43
333.15 K, x1 = 0.4385 | 0.915 | 1253.16
333.15 K, x1 = 0.6368 | 0.686 | 1287.1
333.15 K, x1 = 0.7472 | 0.605 | 1300.47
333.15 K, x1 = 1 | 0.48 | 1322.24
